Experimental data reported in patent publication US20170190671A1, “BIS(ARYL)CATECHOL DERIVATIVES AS HERBICIDES” (E I DU PONT DE NEMOURS AND COMPANY, priority 2014, published 2017).

Assays:
Type in all cases: in vivo
kochia (Kochia scoparia) [1] = assay: Test A postemergence; conditions: Bassia scoparia, post-emergence, 240 h, 0 to 100 scale, read-out: Plant response rating, Kochia; for pest or weed control at 125 g/ha: 125 g ai/ha; for pest or weed control at 500 g/ha: 500 g ai/ha
How it was run: (§1)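 Injury scores run from 0, no effect, to 100, complete control, judged by eye against untreated plants roughly 10 days after treatment. Chemicals carried a surfactant in a non-phytotoxic solvent and went onto loam–sand soil preemergence or onto one- to two-leaf seedlings postemergence.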

[2] = system: wheat (Triticum aestivum); assay: Test A postemergence; conditions: Triticum aestivum, post-emergence, 240 h, 0 to 100 scale, read-out: Plant response rating, Wheat; for plant injury at 125 g/ha: 125 g ai/ha; for plant injury at 500 g/ha: 500 g ai/ha
How it was run: as §1

[3] = system: giant foxtail (Setaria faberii); assay: Test A postemergence; conditions: Setaria faberi, post-emergence, 240 h, 0 to 100 scale, read-out: Plant response rating, Foxtail, Giant; for pest or weed control at 125 g/ha: 125 g ai/ha; for pest or weed control at 500 g/ha: 500 g ai/ha
How it was run: as §1

[4] = system: pigweed (Amaranthus retroflexus); assay: Test A postemergence; conditions: Amaranthus retroflexus, post-emergence, 240 h, 0 to 100 scale, read-out: Plant response rating, Pigweed; for pest or weed control at 125 g/ha: 125 g ai/ha; for pest or weed control at 500 g/ha: 500 g ai/ha
How it was run: as §1

[5] = system: barnyardgrass (Echinochloa crus-galli); assay: Test A postemergence; conditions: Echinochloa crus-galli, post-emergence, 240 h, 0 to 100 scale, read-out: Plant response rating, Barnyardgrass; for pest or weed control at 125 g/ha: 125 g ai/ha; for pest or weed control at 500 g/ha: 500 g ai/ha
How it was run: as §1

corn (Zea mays) = assay: Test A postemergence; conditions: Zea mays, post-emergence, 240 h, 0 to 100 scale; for Corn plant response rating (crop injury, 0 = no effect, 100 = complete kill) at 125 g/ha: 125 g ai/ha; for Corn plant response rating (crop injury, 0 = no effect, 100 = complete kill) at 500 g/ha: 500 g ai/ha
How it was run: as §1

[6] = system: ragweed (common ragweed, Ambrosia elatior); assay: Test A postemergence; conditions: Ambrosia artemisiifolia, post-emergence, 240 h, 0 to 100 scale, read-out: Plant response rating, Ragweed; for pest or weed control at 125 g/ha: 125 g ai/ha; for pest or weed control at 500 g/ha: 500 g ai/ha
How it was run: as §1

[7] = system: Italian ryegrass (Lolium multiflorum); assay: Test A postemergence; conditions: Lolium multiflorum, post-emergence, 240 h, 0 to 100 scale, read-out: Plant response rating, Ryegrass, Italian; for pest or weed control at 125 g/ha: 125 g ai/ha; for pest or weed control at 500 g/ha: 500 g ai/ha
How it was run: as §1

[8] = system: blackgrass (Alopecurus myosuroides); assay: Test A postemergence; conditions: Alopecurus myosuroides, post-emergence, 240 h, 0 to 100 scale, read-out: Plant response rating, Blackgrass; for pest or weed control at 125 g/ha: 125 g ai/ha; for pest or weed control at 500 g/ha: 500 g ai/ha
How it was run: as §1

[9] = system: galium (catchweed bedstraw, Galium aparine); assay: Test A postemergence; conditions: Galium, post-emergence, 240 h, 0 to 100 scale, read-out: Plant response rating, Galium; for pest or weed control at 125 g/ha: 125 g ai/ha; for pest or weed control at 500 g/ha: 500 g ai/ha
How it was run: as §1

[10] = system: sedge, umbrella (small-flower umbrella sedge, Cyperus difformis); assay: Test B flooded paddy; conditions: Cyperus difformis, 336 h; 250 g ai/ha, Flood, 13 to 15 days, scale 0 (no effect) to 100 (complete control); read-out: Plant response rating, Sedge, Umbrella
How it was run: (§2)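 Test compounds are applied straight into paddy water held 3 cm above the soil surface, with that flood maintained for the whole test. After 13 to 15 days in the greenhouse, each species is scored visually relative to controls.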

rice (Oryza sativa) = assay: Test B flooded paddy; conditions: Oryza sativa, 336 h; 250 g ai/ha, Flood, 13 to 15 days, scale 0 (no effect) to 100 (complete control); read-out: Plant response rating, Rice
How it was run: as §2

[11] = system: barnyardgrass (Echinochloa crus-galli); assay: Test B flooded paddy; conditions: Echinochloa crus-galli, 336 h; 250 g ai/ha, Flood, 13 to 15 days, scale 0 (no effect) to 100 (complete control); read-out: Plant response rating, Barnyardgrass
How it was run: as §2

[12] = system: ducksalad (Heteranthera limosa); assay: Test B flooded paddy; conditions: Heteranthera limosa, 336 h; 250 g ai/ha, Flood, 13 to 15 days, scale 0 (no effect) to 100 (complete control); read-out: Plant response rating, Ducksalad
How it was run: as §2

kochia (Kochia scoparia) [13] = assay: Test A preemergence; conditions: Bassia scoparia, pre-emergence, 240 h; for pest or weed control at 125 g/ha: 125 g ai/ha, 0 to 100 scale (0 no effect, 100 complete control), read-out: Kochia plant response rating; for pest or weed control at 500 g/ha: 500 g ai/ha, 0 to 100 scale, read-out: Plant response rating, Kochia
How it was run: as §1

[14] = system: giant foxtail (Setaria faberii); assay: Test A preemergence; conditions: Setaria faberi, pre-emergence, 240 h; for pest or weed control at 125 g/ha: 125 g ai/ha, 0 to 100 scale (0 no effect, 100 complete control), read-out: Foxtail, Giant plant response rating; for pest or weed control at 500 g/ha: 500 g ai/ha, 0 to 100 scale, read-out: Plant response rating, Foxtail, Giant
How it was run: as §1

[15] = system: pigweed (Amaranthus retroflexus); assay: Test A preemergence; conditions: Amaranthus retroflexus, pre-emergence, 240 h; for pest or weed control at 125 g/ha: 125 g ai/ha, 0 to 100 scale (0 no effect, 100 complete control), read-out: Pigweed plant response rating; for pest or weed control at 500 g/ha: 500 g ai/ha, 0 to 100 scale, read-out: Plant response rating, Pigweed
How it was run: as §1

[16] = system: barnyardgrass (Echinochloa crus-galli); assay: Test A preemergence; conditions: Echinochloa crus-galli, pre-emergence, 240 h; for pest or weed control at 125 g/ha: 125 g ai/ha, 0 to 100 scale (0 no effect, 100 complete control), read-out: Barnyardgrass plant response rating; for pest or weed control at 500 g/ha: 500 g ai/ha, 0 to 100 scale, read-out: Plant response rating, Barnyardgrass
How it was run: as §1

[17] = system: ragweed (common ragweed, Ambrosia elatior); assay: Test A preemergence; conditions: Ambrosia artemisiifolia, pre-emergence, 240 h; for pest or weed control at 125 g/ha: 125 g ai/ha, 0 to 100 scale (0 no effect, 100 complete control), read-out: Ragweed plant response rating; for pest or weed control at 500 g/ha: 500 g ai/ha, 0 to 100 scale, read-out: Plant response rating, Ragweed
How it was run: as §1

[18] = system: Italian ryegrass (Lolium multiflorum); assay: Test A preemergence; conditions: Lolium multiflorum, pre-emergence, 240 h; for pest or weed control at 125 g/ha: 125 g ai/ha, 0 to 100 scale (0 no effect, 100 complete control), read-out: Ryegrass, Italian plant response rating; for pest or weed control at 500 g/ha: 500 g ai/ha, 0 to 100 scale, read-out: Plant response rating, Ryegrass, Italian
How it was run: as §1

kochia (Kochia scoparia) [19] = assay: Test C postemergence; conditions: Bassia scoparia, post-emergence, Postemergence, scale 0 to 100, read-out: Plant response rating, Kochia; for pest or weed control at 16 g/ha: 16 g ai/ha; for pest or weed control at 31 g/ha: 31 g ai/ha; for pest or weed control at 62 g/ha: 62 g ai/ha; for pest or weed control at 125 g/ha: 125 g ai/ha
[20] = system: pigweed (Amaranthus retroflexus); assay: Test C postemergence; conditions: Amaranthus retroflexus, post-emergence, 336 h, Postemergence, scale 0 to 100, read-out: Plant response rating, Pigweed; for pest or weed control at 31 g/ha: 31 g ai/ha; for pest or weed control at 62 g/ha: 62 g ai/ha; for pest or weed control at 125 g/ha: 125 g ai/ha

Fc1cccc(Oc2ncc(C(F)(F)F)cn2)c1Oc1ncc(Cl)cn1 [Compound 42, 5-chloro-2-[2-fluoro-6-[[5-(trifluoromethyl)-2-pyrimidinyl]oxy]phenoxy]pyrimidine]
pest or weed control at 125 g/ha (kochia (Kochia scoparia) [1]): 100%
pest or weed control at 500 g/ha (kochia (Kochia scoparia) [1]): 100%
plant injury at 125 g/ha [2]: 80%
plant injury at 500 g/ha [2]: 100%
pest or weed control at 125 g/ha [3]: 100%
pest or weed control at 500 g/ha [3]: 100%
pest or weed control at 125 g/ha [4]: 100%
pest or weed control at 500 g/ha [4]: 100%
pest or weed control at 125 g/ha [5]: 100%
pest or weed control at 500 g/ha [5]: 100%
Corn plant response rating (crop injury, 0 = no effect, 100 = complete kill) at 125 g/ha (corn (Zea mays)): 80%
Corn plant response rating (crop injury, 0 = no effect, 100 = complete kill) at 500 g/ha (corn (Zea mays)): 100%
pest or weed control at 125 g/ha [6]: 70%
pest or weed control at 500 g/ha [6]: 100%
pest or weed control at 125 g/ha [7]: 100%
pest or weed control at 500 g/ha [7]: 100%
pest or weed control at 125 g/ha [8]: 90%
pest or weed control at 500 g/ha [8]: 100%
pest or weed control at 125 g/ha [9]: 100%
pest or weed control at 500 g/ha [9]: 100%
pest or weed control at 250 g/ha [10]: 100%
plant injury at 250 g/ha (rice (Oryza sativa)): 80%
pest or weed control at 250 g/ha [11]: 100%
pest or weed control at 250 g/ha [12]: 100%
pest or weed control at 125 g/ha (kochia (Kochia scoparia) [13]): 100%
pest or weed control at 500 g/ha (kochia (Kochia scoparia) [13]): 100%
pest or weed control at 125 g/ha [14]: 100%
pest or weed control at 500 g/ha [14]: 100%
pest or weed control at 125 g/ha [15]: 100%
pest or weed control at 500 g/ha [15]: 100%
pest or weed control at 125 g/ha [16]: 100%
pest or weed control at 500 g/ha [16]: 100%
pest or weed control at 125 g/ha [17]: 100%
pest or weed control at 500 g/ha [17]: 100%
pest or weed control at 125 g/ha [18]: 60%
pest or weed control at 500 g/ha [18]: 100%
pest or weed control at 16 g/ha (kochia (Kochia scoparia) [19]): 90%
pest or weed control at 31 g/ha (kochia (Kochia scoparia) [19]): 95%
pest or weed control at 62 g/ha (kochia (Kochia scoparia) [19]): 100%
pest or weed control at 125 g/ha (kochia (Kochia scoparia) [19]): 100%
pest or weed control at 31 g/ha [20]: 90%
pest or weed control at 62 g/ha [20]: 98%
pest or weed control at 125 g/ha [20]: 98%

Fc1cccc(Oc2ncc(Cl)cn2)c1Oc1ncc(C(F)(F)F)cn1 [Compound 43, 5-chloro-2-[5-fluoro-6-[[5-(trifluoromethyl)-2-pyrimidinyl]oxy]phenoxy]pyrimidine]
pest or weed control at 125 g/ha (kochia (Kochia scoparia) [1]): 100%
pest or weed control at 500 g/ha (kochia (Kochia scoparia) [1]): 100%
plant injury at 125 g/ha [2]: 80%
plant injury at 500 g/ha [2]: 100%
pest or weed control at 125 g/ha [3]: 90%
pest or weed control at 500 g/ha [3]: 100%
pest or weed control at 125 g/ha [4]: 100%
pest or weed control at 500 g/ha [4]: 100%
pest or weed control at 125 g/ha [5]: 90%
pest or weed control at 500 g/ha [5]: 100%
Corn plant response rating (crop injury, 0 = no effect, 100 = complete kill) at 125 g/ha (corn (Zea mays)): 70%
Corn plant response rating (crop injury, 0 = no effect, 100 = complete kill) at 500 g/ha (corn (Zea mays)): 100%
pest or weed control at 125 g/ha [6]: 70%
pest or weed control at 500 g/ha [6]: 100%
pest or weed control at 125 g/ha [7]: 80%
pest or weed control at 500 g/ha [7]: 100%
pest or weed control at 125 g/ha [8]: 90%
pest or weed control at 500 g/ha [8]: 100%
pest or weed control at 125 g/ha [9]: 100%
pest or weed control at 500 g/ha [9]: 100%
pest or weed control at 250 g/ha [10]: 90%
plant injury at 250 g/ha (rice (Oryza sativa)): 60%
pest or weed control at 250 g/ha [11]: 85%
pest or weed control at 250 g/ha [12]: 100%
pest or weed control at 125 g/ha (kochia (Kochia scoparia) [13]): 100%
pest or weed control at 500 g/ha (kochia (Kochia scoparia) [13]): 100%
pest or weed control at 125 g/ha [14]: 100%
pest or weed control at 500 g/ha [14]: 100%
pest or weed control at 125 g/ha [15]: 100%
pest or weed control at 500 g/ha [15]: 100%
pest or weed control at 125 g/ha [16]: 100%
pest or weed control at 500 g/ha [16]: 100%
pest or weed control at 125 g/ha [17]: 70%
pest or weed control at 500 g/ha [17]: 100%
pest or weed control at 125 g/ha [18]: 50%
pest or weed control at 500 g/ha [18]: 100%
pest or weed control at 16 g/ha (kochia (Kochia scoparia) [19]): 90%
pest or weed control at 31 g/ha (kochia (Kochia scoparia) [19]): 95%
pest or weed control at 62 g/ha (kochia (Kochia scoparia) [19]): 100%
pest or weed control at 125 g/ha (kochia (Kochia scoparia) [19]): 100%
pest or weed control at 31 g/ha [20]: 85%
pest or weed control at 62 g/ha [20]: 90%
pest or weed control at 125 g/ha [20]: 98%
